{
  "source": "ChEMBL document CHEMBL1144455",
  "about": "“A small molecule-kinase interaction map for clinical kinase inhibitors” (Nat Biotechnol, 2005)",
  "key": {"[1]": {"biological_target": "Receptor tyrosine-protein kinase erbB-2 (Homo sapiens, UniProt P04626)", "sequence (P04626 whole entry)": "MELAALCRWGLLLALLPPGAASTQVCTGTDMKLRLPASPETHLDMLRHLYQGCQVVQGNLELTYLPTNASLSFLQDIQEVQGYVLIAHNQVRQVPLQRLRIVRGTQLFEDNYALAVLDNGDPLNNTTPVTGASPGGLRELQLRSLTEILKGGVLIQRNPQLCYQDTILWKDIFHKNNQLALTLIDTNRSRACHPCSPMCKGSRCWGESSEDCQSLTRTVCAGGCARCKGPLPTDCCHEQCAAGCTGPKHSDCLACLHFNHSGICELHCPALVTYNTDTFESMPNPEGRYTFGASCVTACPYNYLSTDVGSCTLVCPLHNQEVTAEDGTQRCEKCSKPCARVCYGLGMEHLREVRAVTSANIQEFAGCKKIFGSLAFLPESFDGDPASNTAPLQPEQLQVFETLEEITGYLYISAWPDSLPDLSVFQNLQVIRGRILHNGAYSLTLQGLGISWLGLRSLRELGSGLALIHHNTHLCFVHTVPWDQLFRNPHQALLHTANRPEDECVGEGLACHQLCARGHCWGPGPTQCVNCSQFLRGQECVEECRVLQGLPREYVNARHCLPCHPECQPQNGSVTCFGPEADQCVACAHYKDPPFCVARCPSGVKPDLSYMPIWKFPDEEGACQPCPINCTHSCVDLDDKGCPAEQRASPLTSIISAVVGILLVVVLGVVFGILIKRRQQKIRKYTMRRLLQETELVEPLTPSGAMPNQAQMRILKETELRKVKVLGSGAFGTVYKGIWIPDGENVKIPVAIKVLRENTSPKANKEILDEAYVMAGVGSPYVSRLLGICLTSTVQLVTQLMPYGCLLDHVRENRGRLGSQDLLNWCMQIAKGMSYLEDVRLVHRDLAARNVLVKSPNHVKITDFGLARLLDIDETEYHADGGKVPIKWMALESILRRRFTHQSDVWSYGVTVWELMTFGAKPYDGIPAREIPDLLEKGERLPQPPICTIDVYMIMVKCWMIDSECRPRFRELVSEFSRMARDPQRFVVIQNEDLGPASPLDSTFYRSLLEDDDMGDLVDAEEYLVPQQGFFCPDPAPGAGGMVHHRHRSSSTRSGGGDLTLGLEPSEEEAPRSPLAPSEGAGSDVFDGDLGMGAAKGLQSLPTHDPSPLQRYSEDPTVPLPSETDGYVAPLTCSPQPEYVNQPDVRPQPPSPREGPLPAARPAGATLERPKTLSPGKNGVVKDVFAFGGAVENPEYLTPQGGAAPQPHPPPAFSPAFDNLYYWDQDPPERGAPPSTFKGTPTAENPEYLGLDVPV"}, "[2]": {"biological_target": "Tyrosine-protein kinase CSK (Homo sapiens, UniProt P41240)", "sequence (P41240 whole entry)": "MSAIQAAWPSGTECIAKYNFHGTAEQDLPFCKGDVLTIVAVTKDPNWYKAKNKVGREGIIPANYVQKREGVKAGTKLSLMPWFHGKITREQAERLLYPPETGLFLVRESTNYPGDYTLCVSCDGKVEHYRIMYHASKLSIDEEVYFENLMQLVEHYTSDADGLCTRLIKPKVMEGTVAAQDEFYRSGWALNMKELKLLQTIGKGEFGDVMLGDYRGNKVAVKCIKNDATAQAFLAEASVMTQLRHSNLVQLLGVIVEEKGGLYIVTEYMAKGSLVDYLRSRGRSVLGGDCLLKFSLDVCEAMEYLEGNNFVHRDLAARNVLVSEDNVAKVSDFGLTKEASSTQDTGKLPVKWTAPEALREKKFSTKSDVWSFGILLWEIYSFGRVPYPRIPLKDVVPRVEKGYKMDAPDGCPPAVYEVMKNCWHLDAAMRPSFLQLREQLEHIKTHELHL"}, "[3]": {"biological_target": "Tyrosine-protein kinase Yes (Homo sapiens, UniProt P07947)", "sequence (P07947 whole entry)": "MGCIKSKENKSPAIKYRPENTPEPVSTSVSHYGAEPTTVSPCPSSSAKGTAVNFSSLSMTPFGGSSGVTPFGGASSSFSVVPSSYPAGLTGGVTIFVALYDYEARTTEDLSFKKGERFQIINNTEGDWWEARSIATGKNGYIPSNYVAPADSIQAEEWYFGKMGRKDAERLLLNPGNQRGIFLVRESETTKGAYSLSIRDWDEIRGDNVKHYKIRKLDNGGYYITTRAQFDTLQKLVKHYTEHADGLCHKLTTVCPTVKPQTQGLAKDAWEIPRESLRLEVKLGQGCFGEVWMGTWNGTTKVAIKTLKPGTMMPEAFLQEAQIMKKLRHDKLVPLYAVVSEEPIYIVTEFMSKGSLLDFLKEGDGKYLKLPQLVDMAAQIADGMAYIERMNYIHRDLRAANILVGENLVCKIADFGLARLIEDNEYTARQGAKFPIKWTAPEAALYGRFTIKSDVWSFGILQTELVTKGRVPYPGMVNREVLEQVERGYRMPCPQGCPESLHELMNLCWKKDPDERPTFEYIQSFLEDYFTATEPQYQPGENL"}, "[4]": {"biological_target": "Tyrosine-protein kinase Lyn (Homo sapiens, UniProt P07948)", "sequence (P07948 whole entry)": "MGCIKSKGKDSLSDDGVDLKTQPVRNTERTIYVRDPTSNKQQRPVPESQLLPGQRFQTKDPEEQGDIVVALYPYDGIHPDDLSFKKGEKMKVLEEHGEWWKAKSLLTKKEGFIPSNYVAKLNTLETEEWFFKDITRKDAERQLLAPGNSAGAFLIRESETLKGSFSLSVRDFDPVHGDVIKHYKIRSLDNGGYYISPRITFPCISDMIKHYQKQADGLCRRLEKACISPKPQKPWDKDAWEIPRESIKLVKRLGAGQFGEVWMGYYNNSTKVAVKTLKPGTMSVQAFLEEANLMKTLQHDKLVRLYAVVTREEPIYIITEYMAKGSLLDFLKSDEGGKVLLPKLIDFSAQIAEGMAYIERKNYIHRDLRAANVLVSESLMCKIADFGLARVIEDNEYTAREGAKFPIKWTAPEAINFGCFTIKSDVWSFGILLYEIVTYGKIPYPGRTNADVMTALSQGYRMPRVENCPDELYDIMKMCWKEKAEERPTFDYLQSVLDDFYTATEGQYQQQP"}, "[5]": {"biological_target": "Tyrosine-protein kinase Fer (Homo sapiens, UniProt P16591)", "sequence (P16591 whole entry)": "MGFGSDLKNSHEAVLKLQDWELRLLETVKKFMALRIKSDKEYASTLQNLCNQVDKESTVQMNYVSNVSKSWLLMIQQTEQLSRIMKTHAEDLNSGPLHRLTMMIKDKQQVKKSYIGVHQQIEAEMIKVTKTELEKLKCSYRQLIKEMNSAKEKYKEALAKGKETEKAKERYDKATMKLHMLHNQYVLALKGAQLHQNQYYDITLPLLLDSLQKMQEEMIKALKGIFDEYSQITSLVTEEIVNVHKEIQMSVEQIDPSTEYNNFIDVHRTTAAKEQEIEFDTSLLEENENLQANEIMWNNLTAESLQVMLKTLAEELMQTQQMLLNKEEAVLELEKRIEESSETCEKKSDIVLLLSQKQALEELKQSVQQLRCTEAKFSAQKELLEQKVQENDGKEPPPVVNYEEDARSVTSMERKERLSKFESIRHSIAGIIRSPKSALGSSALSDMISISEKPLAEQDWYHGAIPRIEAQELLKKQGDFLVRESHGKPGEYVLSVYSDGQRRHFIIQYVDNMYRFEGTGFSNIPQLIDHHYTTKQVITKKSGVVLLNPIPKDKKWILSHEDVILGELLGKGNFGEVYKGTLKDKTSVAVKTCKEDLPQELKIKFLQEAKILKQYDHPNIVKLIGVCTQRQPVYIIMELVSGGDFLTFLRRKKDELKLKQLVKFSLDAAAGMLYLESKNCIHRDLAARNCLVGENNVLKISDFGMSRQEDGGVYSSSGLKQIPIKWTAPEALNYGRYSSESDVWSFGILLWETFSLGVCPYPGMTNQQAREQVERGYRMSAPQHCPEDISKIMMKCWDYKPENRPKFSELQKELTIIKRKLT"}, "[6]": {"biological_target": "T1, Serine/threonine-protein kinase 36 (Homo sapiens, UniProt Q9NRP7)", "T1 sequence (Q9NRP7 whole entry)": "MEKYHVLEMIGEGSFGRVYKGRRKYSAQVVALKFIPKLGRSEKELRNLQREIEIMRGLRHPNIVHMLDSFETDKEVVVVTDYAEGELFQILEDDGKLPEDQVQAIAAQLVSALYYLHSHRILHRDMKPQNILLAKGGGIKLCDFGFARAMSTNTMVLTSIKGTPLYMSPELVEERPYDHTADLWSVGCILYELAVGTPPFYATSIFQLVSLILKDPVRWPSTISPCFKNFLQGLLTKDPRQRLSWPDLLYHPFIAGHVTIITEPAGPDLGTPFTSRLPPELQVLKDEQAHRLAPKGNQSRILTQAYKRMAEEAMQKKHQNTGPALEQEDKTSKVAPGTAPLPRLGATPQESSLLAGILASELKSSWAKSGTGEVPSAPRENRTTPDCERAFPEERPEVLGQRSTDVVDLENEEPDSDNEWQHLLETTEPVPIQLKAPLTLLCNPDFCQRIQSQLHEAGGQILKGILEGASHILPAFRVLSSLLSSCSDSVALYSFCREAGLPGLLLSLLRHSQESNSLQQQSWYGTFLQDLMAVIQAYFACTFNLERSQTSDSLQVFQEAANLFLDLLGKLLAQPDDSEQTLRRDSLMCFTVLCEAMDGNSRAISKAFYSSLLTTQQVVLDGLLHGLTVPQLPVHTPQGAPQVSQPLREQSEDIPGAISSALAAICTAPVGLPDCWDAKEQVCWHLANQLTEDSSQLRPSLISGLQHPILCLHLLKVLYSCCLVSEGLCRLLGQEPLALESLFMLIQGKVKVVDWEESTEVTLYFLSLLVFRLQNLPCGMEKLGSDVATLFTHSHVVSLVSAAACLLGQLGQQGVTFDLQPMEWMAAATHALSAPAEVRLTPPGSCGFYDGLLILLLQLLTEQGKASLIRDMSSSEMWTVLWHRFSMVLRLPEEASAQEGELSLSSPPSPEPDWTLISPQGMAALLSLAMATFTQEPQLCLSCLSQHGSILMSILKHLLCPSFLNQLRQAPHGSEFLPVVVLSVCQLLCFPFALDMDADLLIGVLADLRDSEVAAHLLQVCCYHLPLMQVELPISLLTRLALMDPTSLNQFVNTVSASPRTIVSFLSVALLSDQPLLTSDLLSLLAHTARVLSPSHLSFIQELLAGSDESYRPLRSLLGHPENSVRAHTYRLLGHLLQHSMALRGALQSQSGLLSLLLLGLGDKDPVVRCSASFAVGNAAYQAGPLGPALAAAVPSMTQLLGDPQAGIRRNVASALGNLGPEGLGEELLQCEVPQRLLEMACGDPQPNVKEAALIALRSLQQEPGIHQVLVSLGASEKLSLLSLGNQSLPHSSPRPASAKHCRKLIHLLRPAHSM"}, "[7]": {"biological_target": "Calcium/calmodulin-dependent protein kinase type 1 (Homo sapiens, UniProt Q14012)", "sequence (Q14012 whole entry)": "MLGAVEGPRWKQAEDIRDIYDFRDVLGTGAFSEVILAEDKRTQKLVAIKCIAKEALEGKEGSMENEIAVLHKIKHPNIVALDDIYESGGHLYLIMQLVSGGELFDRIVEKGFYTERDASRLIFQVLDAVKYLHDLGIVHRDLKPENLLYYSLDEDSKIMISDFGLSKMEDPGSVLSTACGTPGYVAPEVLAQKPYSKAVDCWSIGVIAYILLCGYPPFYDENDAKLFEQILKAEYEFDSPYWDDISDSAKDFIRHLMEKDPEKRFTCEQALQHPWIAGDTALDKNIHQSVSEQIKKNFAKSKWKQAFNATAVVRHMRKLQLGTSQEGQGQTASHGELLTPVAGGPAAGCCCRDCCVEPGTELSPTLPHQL"}, "[8]": {"biological_target": "T2, Aurora kinase A (Homo sapiens, UniProt O14965)", "T2 sequence (O14965 whole entry)": "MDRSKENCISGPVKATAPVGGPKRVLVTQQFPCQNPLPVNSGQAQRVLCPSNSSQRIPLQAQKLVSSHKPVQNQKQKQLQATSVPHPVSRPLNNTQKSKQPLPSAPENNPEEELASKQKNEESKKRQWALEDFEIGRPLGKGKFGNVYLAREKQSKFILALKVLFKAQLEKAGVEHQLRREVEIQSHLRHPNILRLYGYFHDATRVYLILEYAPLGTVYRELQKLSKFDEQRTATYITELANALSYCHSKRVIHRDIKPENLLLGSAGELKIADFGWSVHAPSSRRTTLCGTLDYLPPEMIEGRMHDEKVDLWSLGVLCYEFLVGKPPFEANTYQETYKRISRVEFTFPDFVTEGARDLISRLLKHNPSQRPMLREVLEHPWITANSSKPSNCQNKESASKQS"}, "[9]": {"biological_target": "Death-associated protein kinase 3 (Homo sapiens, UniProt O43293)", "sequence (O43293 whole entry)": "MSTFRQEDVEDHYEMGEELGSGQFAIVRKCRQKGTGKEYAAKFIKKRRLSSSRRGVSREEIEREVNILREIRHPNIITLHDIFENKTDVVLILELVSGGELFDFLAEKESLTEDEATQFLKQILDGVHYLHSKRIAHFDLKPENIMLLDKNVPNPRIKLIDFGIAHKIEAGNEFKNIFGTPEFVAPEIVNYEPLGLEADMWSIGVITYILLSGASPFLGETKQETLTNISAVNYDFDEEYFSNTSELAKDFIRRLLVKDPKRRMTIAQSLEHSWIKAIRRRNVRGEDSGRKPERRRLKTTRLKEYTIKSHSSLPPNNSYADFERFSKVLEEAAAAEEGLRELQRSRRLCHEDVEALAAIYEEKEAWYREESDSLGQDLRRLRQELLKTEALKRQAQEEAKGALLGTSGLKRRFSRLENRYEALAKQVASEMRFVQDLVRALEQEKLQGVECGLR"}, "[10]": {"biological_target": "T3, Ephrin type-A receptor 3 (Homo sapiens, UniProt P29320)", "T3 sequence (P29320 whole entry)": "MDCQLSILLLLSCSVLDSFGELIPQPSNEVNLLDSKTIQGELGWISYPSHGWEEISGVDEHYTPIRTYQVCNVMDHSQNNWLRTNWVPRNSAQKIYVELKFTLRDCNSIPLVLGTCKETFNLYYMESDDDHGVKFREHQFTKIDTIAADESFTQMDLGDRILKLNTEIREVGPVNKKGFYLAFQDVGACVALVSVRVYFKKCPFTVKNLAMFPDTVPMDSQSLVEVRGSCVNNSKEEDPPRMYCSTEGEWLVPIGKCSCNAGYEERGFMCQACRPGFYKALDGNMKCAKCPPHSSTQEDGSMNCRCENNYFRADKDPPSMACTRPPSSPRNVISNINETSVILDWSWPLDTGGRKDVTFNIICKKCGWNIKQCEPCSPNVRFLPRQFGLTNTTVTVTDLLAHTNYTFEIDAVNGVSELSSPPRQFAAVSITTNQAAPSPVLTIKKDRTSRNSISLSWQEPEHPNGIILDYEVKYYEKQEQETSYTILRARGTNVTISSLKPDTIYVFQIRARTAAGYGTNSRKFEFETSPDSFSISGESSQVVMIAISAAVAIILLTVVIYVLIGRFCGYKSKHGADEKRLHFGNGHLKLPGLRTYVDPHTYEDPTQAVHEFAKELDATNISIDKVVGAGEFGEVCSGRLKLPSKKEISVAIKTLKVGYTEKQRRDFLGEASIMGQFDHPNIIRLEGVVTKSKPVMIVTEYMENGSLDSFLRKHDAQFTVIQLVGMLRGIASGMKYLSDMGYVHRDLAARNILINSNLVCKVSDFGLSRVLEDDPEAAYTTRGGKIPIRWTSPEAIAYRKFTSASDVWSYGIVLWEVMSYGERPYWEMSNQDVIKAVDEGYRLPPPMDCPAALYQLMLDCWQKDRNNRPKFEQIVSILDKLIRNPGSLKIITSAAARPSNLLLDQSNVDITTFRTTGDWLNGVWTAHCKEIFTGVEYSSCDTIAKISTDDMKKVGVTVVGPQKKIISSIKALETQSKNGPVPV"}},
  "data": [
    {"smiles": "CCOc1cc2ncc(C#N)c(Nc3ccc(F)c(Cl)c3)c2cc1NC(=O)/C=C/CN(C)C", "note": "[PELITINIB]", "values": [
      {"measurement": "Kd", "setting": "[1]", "value": 0.077, "unit": "µM"},
      {"measurement": "Kd", "setting": "[2]", "value": 2.3, "unit": "µM"},
      {"measurement": "Kd", "setting": "[3]", "value": 0.84, "unit": "µM"},
      {"measurement": "Kd", "setting": "[4]", "value": 0.96, "unit": "µM"},
      {"measurement": "Kd", "setting": "[5]", "value": 0.25, "unit": "µM"}
    ]},
    {"smiles": "Oc1ccc(-c2nc(-c3ccc(F)cc3)c(-c3ccncc3)[nH]2)cc1", "note": "[SB-202190]", "values": [
      {"measurement": "Kd", "setting": "[6]", "value": 3.8, "unit": "µM"}
    ]},
    {"smiles": "Oc1c2ccccc2c2c3c(cccc13)N=N2", "note": "[SP-600125]", "values": [
      {"measurement": "Kd", "setting": "[7]", "value": 4.1, "unit": "µM"},
      {"measurement": "Kd", "setting": "[8]", "value": 0.98, "unit": "µM"},
      {"measurement": "Kd", "setting": "[9]", "value": 0.41, "unit": "µM"},
      {"measurement": "Kd", "setting": "[10]", "value": 4, "unit": "µM"}
    ]}
  ]
}
